Literature values in patent US20220265591A1, “USE OF AN OSMOLYTE IN MANUFACTURE OF A MEDICAMENT FOR TREATMENT OF OCULAR DISORDERS” (SINGAPORE HEALTH SERVICES PTELTD, priority 2019, published 2022).

Tested on: TGFBIp derived peptides
Conditions: 0.001-0.02% (0.03-0.6 mM), close to critical micellar concentration; cited from earlier work

benzalkonium chloride
effect on amyloid fibril formation: accelerated the amyloid fibril formation
